Where “and” joins values, the source holds several entries; their conditions need not be identical. Identical values can stand only once.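 Cultured in 96-well plates, cells were exposed to test compound for 48 hours across five concentrations. GI50: concentration for 50% inhibition of growth. Definition used: TGI = concentration required for complete inhibition of growth.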
Experiments:
Assay in all cases: inhibition of tumour cell growth, NCI panel, 48 h; in the data active means GI50 below about 0.43 µM; inactive means the rest
[1] = tested on: HCC-2998 colon
[2] = tested on: SNB-19 CNS
[3] = tested on: M19-MEL melanoma
[4] = tested on: RPMI-8226 leukemia
[5] = tested on: SK-MEL-28 melanoma
[6] = tested on: ACHN renal
[7] = tested on: CCRF-CEM leukemia
[8] = tested on: KM20L2 colon
[9] = tested on: SNB-78 CNS
[10] = tested on: COLO 205 colon
[11] = tested on: 786-0 renal
[12] = tested on: HT29 colon
[13] = tested on: LXFL 529 NSCLC
[14] = tested on: HOP-62 NSCLC
[15] = tested on: SK-MEL-5 melanoma
[16] = tested on: SF-295 CNS
[17] = tested on: SF-268 CNS
[18] = tested on: DMS 273 small cell lung
[19] = tested on: SW-620 colon
[20] = tested on: HOP-92 NSCLC
[21] = tested on: OVCAR-5 ovarian
[22] = tested on: DMS 114 small cell lung
[23] = tested on: DLD-1 colon
[24] = tested on: A549 NSCLC
[25] = tested on: SF-539 CNS
[26] = tested on: UACC-257 melanoma
[27] = tested on: MOLT-4 leukemia
[28] = tested on: NCI-H460 lung
[29] = tested on: SNB-75 CNS
[30] = tested on: SN12C renal
[31] = tested on: SK-OV-3 ovarian
[32] = tested on: M14 melanoma
[33] = tested on: OVCAR-3 ovarian
[34] = tested on: IGROV1 ovarian
[35] = tested on: OVCAR-8 ovarian
[36] = tested on: U251 CNS
[37] = tested on: CAKI-1 renal
[38] = tested on: A498 renal
[39] = tested on: UO-31 renal
[40] = tested on: HL-60(TB) leukemia
[41] = tested on: RXF-631 renal
[42] = tested on: HCT-116 colon
[43] = tested on: EKVX NSCLC
[44] = tested on: OVCAR-4 ovarian
[45] = tested on: TK-10 renal
[46] = tested on: K-562 leukemia
[47] = tested on: RXF 393 renal
[48] = tested on: SR leukemia
[49] = tested on: HCT-15 colon
[50] = tested on: HOP-18 NSCLC
[51] = tested on: NCI-H23 lung
[52] = tested on: MALME-3M melanoma
[53] = tested on: KM12 colon
[54] = tested on: UACC-62 melanoma
[55] = tested on: LOX IMVI melanoma
[56] = tested on: SK-MEL-2 melanoma
[57] = tested on: NCI-H226 lung
[58] = tested on: DU-145 prostate
[59] = tested on: MDA-MB-435
[60] = tested on: BT-549 breast
[61] = tested on: MDA-N
[62] = tested on: T-47D breast
[63] = tested on: NCI/ADR-RES ovarian
[64] = tested on: NCI-H522 lung
[65] = tested on: XF 498 CNS
[66] = tested on: MCF7 breast

CC(=O)OC(C)(C)C1CC[C@]2(C)/C=C/C(C)C[C@@H](O)/C=C(\C)CC(O)C12 (some centres not stated)
> 100 µM: TGI [1] | TGI [2] | TGI [3] | TGI [4] | TGI [5] | TGI [6] | TGI [7] | TGI [8] | TGI [9] | TGI [10] | TGI [11] | TGI [12] | TGI [13] | TGI [14] | TGI [15] | TGI [16] | TGI [17] | TGI [18] | TGI [19] | TGI [20] | TGI [21] | TGI [22] | TGI [23] | TGI [24] | TGI [25] | TGI [26] | TGI [27] | TGI [28] | TGI [29] | TGI [30] | TGI [31] | TGI [32] | TGI [33] | TGI [34] | TGI [35] | TGI [36] | TGI [37] | TGI [38] | TGI [39] | TGI [40] | TGI [41] | TGI [42] | TGI [43] | TGI [44] | TGI [45] | TGI [46] | TGI [47] | TGI [48] | TGI [49] | TGI [50] | TGI [51] | TGI [52] | TGI [53] | TGI [54] | TGI [55] | TGI [56] | TGI [57]

CC[C@@]1(OP(=O)(O)O)C(=O)OCc2c1cc1n(c2=O)Cc2cc3ccccc3nc2-1
3.79 µM: TGI [33]
0.537 µM and 0.373 µM: TGI [25]
1.87 µM and 5.28 µM: TGI [32]
3.31 µM and 17.3 µM: TGI [29]
2.21 µM and 9.34 µM: TGI [65]
88 µM: TGI [45]
1.16 µM and 0.66 µM: TGI [57]
> 100 µM: TGI [9] | TGI [43] | TGI [46]
inactive: GI50 [1] 1.57 µM | GI50 [5] 1.86 µM | GI50 [9] 3.81 µM | GI50 [10] 1.21 µM | GI50 [12] 0.428 µM | GI50 [20] 1.24 µM | GI50 [21] 0.553 µM | GI50 [23] 2.56 µM | GI50 [33] 0.93 µM | GI50 [35] 0.427 µM | GI50 [43] 2.13 µM | GI50 [45] 4.62 µM | GI50 [65] 1.88 µM | GI50 [46] 0.572 µM | GI50 [52] 1.09 µM | GI50 [56] 1.85 µM
6.08 µM and 0.619 µM: TGI [30]
9.44 µM: TGI [19]
1.55 µM: TGI [66]
0.585 µM: TGI [55]
0.188 µM: TGI [40]
6.47 µM and 2.05 µM: TGI [3]
0.853 µM and 0.26 µM: TGI [6]
active: GI50 [2] 0.143 µM | GI50 [3] 0.25 µM | GI50 [4] 0.187 µM | GI50 [6] 0.0243 µM | GI50 [11] 0.0367 µM | GI50 [14] 0.0131 µM | GI50 [15] 0.126 µM | GI50 [16] 0.0249 µM | GI50 [17] 0.0774 µM | GI50 [22] 0.0678 µM | GI50 [24] 0.12 µM | GI50 [25] 0.0472 µM | GI50 [29] 0.143 µM | GI50 [30] 0.024 µM | GI50 [31] 0.105 µM | GI50 [32] 0.173 µM | GI50 [34] 0.377 µM | GI50 [38] 0.128 µM | GI50 [39] 0.099 µM | GI50 [64] 0.0688 µM | GI50 [47] 0.144 µM | GI50 [50] 0.408 µM | GI50 [51] 0.0827 µM | GI50 [54] 0.0269 µM | GI50 [57] 0.0379 µM
0.509 µM and 3.37 µM: TGI [22]
0.559 µM and 0.96 µM: TGI [38]
5.64 µM: TGI [10]
39.3 µM: TGI [2]
0.458 µM and 0.46 µM: TGI [15]
44.4 µM: TGI [50]
7.98 µM and 6.46 µM: TGI [31]
0.866 µM and 1.97 µM: TGI [16]
5.28 µM and 9.45 µM: TGI [17]
3.47 µM: TGI [53]
6.44 µM and 4.85 µM: TGI [44]
0.404 µM and 1.48 µM: TGI [54]
4.51 µM and 5.58 µM: TGI [34]
0.118 µM and 0.319 µM: TGI [7]
0.147 µM and 0.395 µM: TGI [27]
4.55 µM: TGI [60]
2.11 µM: TGI [59]
0.747 µM: TGI [36]
7.33 µM and 12.3 µM: TGI [24]
2.58 µM and 3.86 µM: TGI [26]
0.715 µM: TGI [63]
4.59 µM: TGI [61]
7.36 µM and 5.05 µM: TGI [56]
0.0566 µM: TGI [48]
6.06 µM and 8.45 µM: TGI [1]
0.458 µM: GI50 [8]
0.666 µM: TGI [28]
3.52 µM and 0.81 µM: TGI [47]
1.51 µM: TGI [42]
1.04 µM: TGI [37]
0.194 µM: TGI [18]
57.7 µM: TGI [5]
0.625 µM and 1.03 µM: TGI [39]
2.27 µM and 4.58 µM: TGI [4]
1.47 µM and 0.248 µM: TGI [14]
3 µM and 1.88 µM: TGI [64]
0.598 µM: TGI [58]
70.8 µM: TGI [13]
2.7 µM and 6.46 µM: TGI [20]
0.867 µM: TGI [62]
9.87 µM and 14 µM: TGI [52]

N/N=c1/nc2n(c3ncccc13)C=CNN2
> 100 µM: TGI [1] | TGI [2] | TGI [4] | TGI [5] | TGI [6] | TGI [7] | TGI [8] | TGI [10] | TGI [11] | TGI [12] | TGI [13] | TGI [14] | TGI [15] | TGI [16] | TGI [17] | TGI [18] | TGI [19] | TGI [20] | TGI [21] | TGI [22] | TGI [23] | TGI [24] | TGI [25] | TGI [26] | TGI [27] | TGI [28] | TGI [30] | TGI [31] | TGI [33] | TGI [34] | TGI [35] | TGI [36] | TGI [37] | TGI [40] | TGI [41] | TGI [42] | TGI [43] | TGI [45] | TGI [64] | TGI [65] | TGI [46] | TGI [47] | TGI [48] | TGI [49] | TGI [51] | TGI [52] | TGI [53] | TGI [54] | TGI [55] | TGI [56] | TGI [57]
